Results: US11185539B2 (priority 2017, dated 2021)

Key:
[1] = system: C57BL/6N mice with angiotensin II-induced diastolic heart failure; assay: Tissue Doppler Imaging, therapeutic model; assay type: in vivo; conditions: therapeutic: Bufalin 0.5 mg/kg; week 8; vs AngII solvent control
Experimental: (§1) Diastolic heart failure (HF) was induced in C57BL/6N mice via implantation of angiotensin II filled minipumps (see Example 3). In difference to Example 3, C57BL/6N mice were infused with 3 mg/kg/day angiotensin II by subcutaneously implanted minipumps for eight weeks.
(§2) Next, Bufalin or Lycorine (dissolved in DMSO) or the solvent DMSO alone (as control) were injected intraperitoneally (i.p) every other day until the endpoint, starting two weeks after start of angiotensin II-infusion (see FIG. 11).
(§3) Diastolic HF was induced in C57BL/6 mice and Bufalin were injected as indicated in Example 5. Eight weeks after the operation, cardiac function of the mice was assessed echocardiographically (n=3-6 per group) by treating the mice with said compounds (Bufalin: 0.5 mg/kg)
Echocardiographic measurements were performed using Tissue Doppler Imaging (TDI), which refers to a medical ultrasound technology mainly used in Echocardiography that measures the velocity of the heart muscle or myocardium through the phases of one or more heartbeats by the Doppler effect (frequency shift) of the reflected ultrasound (see FIG. 14).

[2] = system: C57BL/6N mice with angiotensin II-induced diastolic heart failure; assay: Hemodynamic measurement (MILLAR), therapeutic model; assay type: in vivo; conditions: therapeutic: Bufalin 0.5 mg/kg, Lycorine 4.5 mg/kg; week 8
Experimental: as §1, §2
Diastolic HF was induced in C57BL/6 mice and Bufalin or Lycorine were injected as indicated in Example 5. Eight weeks after the operation, hemodynamic measurements of the mice were assessed (n=6-7 per group) by treating the mice with said compounds (Bufalin: 0.5 mg/kg, Lycorine 4.5 mg/kg).

kidney and liver [3] = assay: Kidney and liver histology (HE, PAS), angiotensin II model, fourteen days; assay type: in vivo, mice; conditions: Bufalin 0.5, Lycorine 4.5 mg/kg; fourteen days after the operation
Experimental: (§4) Again, HF was induced in mice (Example 3) and Bufalin (0.5 mg/kg) as well as Lycorine (4.5 mg/kg) were injected as indicated in Example 3. Fourteen days after the operation, kidneys and livers were subjected to histological assessment via Hematoxylin and Eosin (HE) and Periodic acid-Schiff (PAS) stain (n=2-4 per group) (see FIGS. 28A and B).

[4] = system: C57BL/6N mice with angiotensin II-induced diastolic heart failure; assay: 2-dimensional speckle-tracking strain echocardiography, therapeutic model; assay type: in vivo; conditions: therapeutic: Bufalin 0.5 mg/kg; week 8
Experimental: as §1, §2, §3
Additionally, myocardial deformation was assessed using strain imaging such as 2-dimensional speckle-tracking strain echocardiography. Global longitudinal strain (GLS), a measure for the deformation of the myocardium, which decreases when diastolic dysfunction is present, is depicted in FIG. 15.

[5] = Myocardial and plasma concentrations, LC and QTOF-MS; assay type: in vivo, mice; conditions: 9 minutes after injection; Bufalin 0.5, Lycorine 4.5 mg/kg
Experimental: Plasma and hearts of C57BL/6N mice were harvested 9 minutes after injection with natural substances Bufalin (0.5 mg/kg) or Lycorine (4.5 mg/kg) (dissolved in DMSO). After extraction of the substances, Bufalin and Lycorine were quantified by liquid chromatography (LC) and quadrupole time-of-flight mass spectrometry (QTOF-MS) (see FIG. 30).

[6] = system: C57BL/6N mice with angiotensin II-induced diastolic heart failure; assay: Picrosirius-red collagen staining of heart sections, therapeutic model (eight weeks); assay type: in vivo; conditions: therapeutic: i.p. every other day from week 2 of angiotensin II; week 8
Experimental: as §1, §2
Additionally, eight weeks after the operation, histological sections of the hearts were stained for collagen using picrosirius-red (n=7-12 per group) after treatment with Bufalin or Lycorine.

kidney and liver [7] = assay: Kidney and liver histology (HE, PAS), therapeutic model, eight weeks; assay type: in vivo, mice; conditions: therapeutic approach; Bufalin 0.5, Lycorine 4.5 mg/kg; eight weeks after the operation
Experimental: as §4, with “HF” for “Again, HF”, “5)” for “3)”, “5. Eight weeks” for “3. Fourteen days”, “(n=4” for “(n=2-4”, “group).” for “group) (see FIGS. 28A and B).”

[8] = system: rat renal fibroblast cell line NRK49F; assay: Proliferation of rat renal fibroblast cell line NRK49F, BrdU-ELISA; assay type: cell-based; conditions: 24 h; for proliferation of renal fibroblasts (NRK49F): Lycorine 1, 5, 10 μM, Bufalin 0.1, 1, 10 μM
Experimental: (§5) Cells of the rat renal fibroblast cell line NRK49F and primary human pulmonary fibroblasts (HPFs) were treated with Lycorine (1 μM, 5 μM and 10 μM) or Bufalin (0.1 μM, 1 μM, 10 μM) for 24 h and proliferation of respective fibroblasts was measured by BrdU-ELISA (see FIG. 39).

[9] = system: primary human pulmonary fibroblasts (HPFs); assay: Proliferation of primary human pulmonary fibroblasts, BrdU-ELISA; assay type: cell-based; conditions: 24 h; for proliferation of pulmonary fibroblasts (HPFs): Lycorine 1, 5, 10 μM, Bufalin 0.1, 1, 10 μM
Experimental: as §5

[10] = system: C57BL/6 mice with angiotensin II-induced diastolic heart failure; assay: Picrosirius-red collagen staining of heart sections, angiotensin II model (two weeks); assay type: in vivo; conditions: i.p. every other day, Bufalin 0.5, Lycorine 4.5, Anisomycin 10, Gitoxigenin 0.01 mg/kg, day 14
Experimental: Diastolic heart failure (HF) was induced in C57BL/6 mice via implantation of angiotensin II filled minipumps. Male C57BL/6 mice 8-10 weeks old were used in the present invention being based on a C57BL/6N-background (Charles River, Germany).
For implantation of angiotension II filled minipumps, Angiotensin-II is applied by osmotic minipumps for two weeks (Alzet® [Modell 1001]). The recommended dose amounts for 1.5 or 3.0 mg/kg/per day. The minipumps are filled under sterile conditions with Angiotensin-II or with isotonic saline solution functioning as a control substance. Implantation takes place under intraperitoneal injection anaesthesia. […] Mice are then fixed on a pre-heated operating table and are provided with Bepanthen eye salve against drying out of the conjunctives. The operating field is located in the right caudal third of the back. It is shaved and desinfected with Braunol, afterwards it is coated with a 0.5% Lidocain-solution. After a period of one hour implantation can be started. The skin is cut through vertical to the back line, preferably the length is one centimeter. A pocket from the cutting line to cranial is subcutaneously formed. Herein, the minipumps are injected. Afterwards, the skin is then closed with a 5-0 Prolene string with interrupted sutures. Then, the closed wound is coated again with Braunol. For preventing hypothermia mice wake up in their cages, which are placed up to one-third on a terrarium-warming mat with regulated temperatures of 37°. Surgery amounts for 5 minutes/per animal.
Next, the natural compounds (Bufalin, Gitoxigenin, Lycorine, and Anisomycin) were injected intraperitoneally every other day during two consecutive weeks starting two days after the operation (see FIG. 6). DMSO was also injected into C57BL/6 mice with induced cardiac remodeling as a control. Cardiac function was assessed echocardiographically and fibrosis-development via collagen staining with picosirius-red in histological sections of the hearts (Example 4).
Further, fourteen days after the operation, histological sections of the hearts were stained for collagen using picrosirius-red (n=3-5 per group) after treatment with said compounds (Bufalin: 0.5 mg/kg, Lycorine 4.5 mg/kg, Anisomycin: 10 mg/kg and Gitoxigenin: 0.01 mg/kg).

Row | Compound | velocity of tissue motion in diastole (E′) [1] | end-diastolic pressure-volume relationship (EDPVR) [2] | kidney and liver morphology (HE, PAS) (kidney and liver [3]) | ejection fraction (EF) [4] | global longitudinal strain (GLS) [4] | levels in the myocardium compared to the plasma [5] | collagen deposition in heart sections (picrosirius-stained areas) [6] | kidney and liver morphology (HE, PAS) (kidney and liver [7]) | proliferation of renal fibroblasts (NRK49F) [8] | most effective amount (pulmonary fibroblasts) [9] [µM] | proliferation of pulmonary fibroblasts (HPFs) [9] | collagen deposition in heart sections (picrosirius-stained areas) [10] | most effective amount (renal fibroblasts) [8] [µM]
1 | C[C@]12CC[C@H](O)C[C@H]1CC[C@@H]1[C@@H]2CC[C@]2(C)[C@@H](c3ccc(=O)oc3)CC[C@]12O [Bufalin] | recovers the velocity of tissue motion in diastole | significant reduction | does not induce necrosis, inflammation or any morphological changes | remained comparable in all tested groups | significant reversal of the downshift | higher levels in (A) the myocardium as compared to (B) the plasma | reduction of collagen deposition | does not induce necrosis, inflammation or any morphological changes | significantly inhibits only proliferation of pulmonary fibroblasts | 10 | significantly inhibits | prominent reduction of collagen deposition | 
2 | C[C@]12CC[C@H](O)C[C@H]1CC[C@@H]1[C@@H]2CC[C@]2(C)[C@@H](C3=CC(=O)OC3)[C@@H](O)C[C@]12O [Gitoxigenin] |  |  |  |  |  |  |  |  |  |  |  | prominent reduction of collagen deposition | 
3 | COc1ccc(C[C@H]2NC[C@H](O)[C@H]2OC(C)=O)cc1 [Anisomycin] |  |  |  |  |  |  |  |  |  |  |  | prominent reduction of collagen deposition | 
4 | O[C@H]1[C@H]2c3cc4c(cc3CN3CCC(=C[C@@H]1O)[C@H]23)OCO4 [Lycorine] |  | significant reduction | does not induce necrosis, inflammation or any morphological changes |  |  | higher levels in (A) the myocardium as compared to (B) the plasma | reduction of collagen deposition | does not induce necrosis, inflammation or any morphological changes | significantly inhibits proliferation | 10 | significantly inhibits proliferation | prominent reduction of collagen deposition | 10
